Assay results: patent publication US20120220564A1, “SELECTIVE CALCIUM CHANNEL MODULATORS” (Zalicus Pharmaceuticals Ltd., priority 2009, published 2012)

Assays:
[1] = molecular target: T1, α1G (CaV 3.1) (Homo sapiens, UniProt O43497); experiment: T-type calcium channel block, whole cell patch clamp; format: cell-based; conditions: HEK cells, mainly non-inactivated protocol; values above 10,000 nM represented as 10000
T1 construct: expressed in transfected cells; host or cells: HEK 293
Experimental: (§1) T-type calcium channel blocking activity was assayed in human embryonic kidney cells, HEK 293 (Invitrogen), stably transfected with the T-type calcium channel subunits. Briefly, cells were cultured in Dulbecco's modified eagle medium (DMEM) supplemented with 10% fetal bovine serum, 200 U/ml penicillin, and 0.2 mg/mL streptomycin at 37° C. with 5% CO2. At 85% confluency, cells were split with 0.25% trypsin/1 mM EDTA and plated at 10% confluency on glass coverslips. At 12 hours, the medium was replaced, and the cells stably transfected using a standard calcium phosphate protocol and the appropriate calcium channel cDNA's. Fresh DMEM was supplied, and the cells transferred to 28° C./5% CO2. Cells were incubated for 1 to 2 days prior to whole cell recording.
(§2) Standard patch-clamp techniques were employed to identify blockers of T-type currents. Briefly, previously described HEK cell lines stably expressing human α1G, α1H and α1I T-type channels were used for all the recordings (passage #: 4-20, 37° C., 5% CO2). Whole cell patch clamp experiments were performed using an Axopatch 200B amplifier (Axon Instruments, Burlingame, Calif.) linked to a personal computer equipped with pCLAMP software. Data were analyzed using Clampfit (Axon Instruments) and SigmaPlot 4.0 (Jandel Scientific). To obtain T-type currents, plastic dishes containing semi-confluent cells were positioned on the stage of a ZEISS AXIOVERT S100 microscope after replacing the culture medium with external solution (Table 2). Whole-cell patches were obtained using pipettes (borosilicate glass with filament, O.D.: 1.5 mm, I.D.: 0.86 mm, 10 cm length), fabricated on a SUTTER P-97 puller with resistance values of ˜5 MΩ (Table 3).
(§3) T-type currents were reliably obtained by using two voltage protocols:
(§4) In the non-inactivating protocol, the holding potential is set at −110 mV and with a pre-pulse at −100 mV for 1 second prior to the test pulse at −40 mV for 50 ms. In the inactivation protocol, the pre-pulse is at approximately −85 mV for 1 second, which inactivates about 15% of the T-type channels (Scheme 1).
(§5) Test compounds were dissolved in external solution, 0.1-0.01% DMSO. After ˜10 minutes rest, they were applied by gravity close to the cell using a WPI microfil tubing. The “non-inactivated” pre-pulse was used to examine the resting block of a compound. The “inactivated” protocol was employed to study voltage-dependent block. However, the initial data shown below were mainly obtained using the non-inactivated protocol only. IC50 values are shown for various compounds of the invention in Table 4. […] In Table 4, empty cells indicate that inhibition by the compound was not detected.

[2] = molecular target: T2, α1H (CaV 3.2) (Homo sapiens, UniProt O95180); experiment: as above; format: cell-based; conditions: HEK cells, mainly non-inactivated protocol; values above 10,000 nM represented as 10000
T2 construct: expressed in transfected cells; host or cells: HEK 293
T2 sequence (O95180 whole entry): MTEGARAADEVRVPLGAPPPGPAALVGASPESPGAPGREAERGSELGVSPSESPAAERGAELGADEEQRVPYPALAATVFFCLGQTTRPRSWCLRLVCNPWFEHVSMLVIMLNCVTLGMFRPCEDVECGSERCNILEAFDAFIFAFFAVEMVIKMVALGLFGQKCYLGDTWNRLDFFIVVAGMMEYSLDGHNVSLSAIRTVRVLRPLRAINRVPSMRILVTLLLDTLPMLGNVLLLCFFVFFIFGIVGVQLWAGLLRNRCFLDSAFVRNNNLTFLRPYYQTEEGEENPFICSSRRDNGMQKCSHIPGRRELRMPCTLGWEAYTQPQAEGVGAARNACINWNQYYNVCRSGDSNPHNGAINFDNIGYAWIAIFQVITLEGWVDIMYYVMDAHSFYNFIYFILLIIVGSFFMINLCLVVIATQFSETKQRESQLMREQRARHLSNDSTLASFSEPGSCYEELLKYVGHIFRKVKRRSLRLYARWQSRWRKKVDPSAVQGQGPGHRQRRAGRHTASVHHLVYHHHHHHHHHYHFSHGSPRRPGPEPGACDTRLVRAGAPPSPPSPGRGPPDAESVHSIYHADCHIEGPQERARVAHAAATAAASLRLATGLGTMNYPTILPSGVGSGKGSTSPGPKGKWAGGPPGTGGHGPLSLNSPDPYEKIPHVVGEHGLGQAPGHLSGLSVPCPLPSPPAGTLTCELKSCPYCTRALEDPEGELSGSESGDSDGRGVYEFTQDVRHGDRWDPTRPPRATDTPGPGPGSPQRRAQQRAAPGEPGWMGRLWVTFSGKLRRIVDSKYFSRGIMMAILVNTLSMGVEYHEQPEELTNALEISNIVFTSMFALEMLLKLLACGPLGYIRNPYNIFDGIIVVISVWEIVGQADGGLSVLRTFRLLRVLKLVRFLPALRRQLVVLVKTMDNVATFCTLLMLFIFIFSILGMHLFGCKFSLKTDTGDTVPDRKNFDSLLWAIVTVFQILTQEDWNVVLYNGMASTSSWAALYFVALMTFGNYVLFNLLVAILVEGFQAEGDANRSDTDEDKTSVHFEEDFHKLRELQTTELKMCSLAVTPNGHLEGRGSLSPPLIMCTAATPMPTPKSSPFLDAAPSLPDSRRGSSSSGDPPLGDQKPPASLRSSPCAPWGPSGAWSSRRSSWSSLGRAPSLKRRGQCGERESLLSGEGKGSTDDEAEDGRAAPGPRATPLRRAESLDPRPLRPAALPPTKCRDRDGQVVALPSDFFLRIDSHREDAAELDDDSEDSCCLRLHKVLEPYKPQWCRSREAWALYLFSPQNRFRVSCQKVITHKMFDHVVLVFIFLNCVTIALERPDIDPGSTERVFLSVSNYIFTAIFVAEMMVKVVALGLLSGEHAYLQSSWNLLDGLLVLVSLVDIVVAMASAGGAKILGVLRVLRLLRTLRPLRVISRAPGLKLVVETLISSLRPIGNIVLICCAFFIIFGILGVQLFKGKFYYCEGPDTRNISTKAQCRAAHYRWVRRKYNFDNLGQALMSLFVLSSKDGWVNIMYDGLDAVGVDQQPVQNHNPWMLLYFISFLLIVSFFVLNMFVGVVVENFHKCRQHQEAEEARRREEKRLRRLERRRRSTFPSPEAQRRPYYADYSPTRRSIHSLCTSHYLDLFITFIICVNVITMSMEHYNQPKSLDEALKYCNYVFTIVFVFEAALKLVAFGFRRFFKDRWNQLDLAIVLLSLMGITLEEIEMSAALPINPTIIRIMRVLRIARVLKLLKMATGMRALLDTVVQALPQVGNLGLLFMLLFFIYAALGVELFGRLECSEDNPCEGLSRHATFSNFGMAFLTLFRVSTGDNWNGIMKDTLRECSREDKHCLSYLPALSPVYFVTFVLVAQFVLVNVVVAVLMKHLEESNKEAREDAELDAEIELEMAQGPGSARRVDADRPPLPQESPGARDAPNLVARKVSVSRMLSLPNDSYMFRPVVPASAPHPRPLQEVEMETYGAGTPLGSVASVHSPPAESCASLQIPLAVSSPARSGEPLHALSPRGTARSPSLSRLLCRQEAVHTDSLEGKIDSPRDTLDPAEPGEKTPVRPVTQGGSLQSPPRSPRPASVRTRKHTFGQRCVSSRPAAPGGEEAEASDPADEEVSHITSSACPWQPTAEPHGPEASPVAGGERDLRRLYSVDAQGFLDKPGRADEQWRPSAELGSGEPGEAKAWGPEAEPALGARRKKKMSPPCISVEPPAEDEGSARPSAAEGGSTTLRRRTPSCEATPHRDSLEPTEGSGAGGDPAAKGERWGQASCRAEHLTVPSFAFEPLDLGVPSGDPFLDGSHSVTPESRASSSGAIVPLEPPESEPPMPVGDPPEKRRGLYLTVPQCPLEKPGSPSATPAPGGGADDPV
Experimental: as §1, §2, §3, §4, §5

T1 sequence (O43497 whole entry): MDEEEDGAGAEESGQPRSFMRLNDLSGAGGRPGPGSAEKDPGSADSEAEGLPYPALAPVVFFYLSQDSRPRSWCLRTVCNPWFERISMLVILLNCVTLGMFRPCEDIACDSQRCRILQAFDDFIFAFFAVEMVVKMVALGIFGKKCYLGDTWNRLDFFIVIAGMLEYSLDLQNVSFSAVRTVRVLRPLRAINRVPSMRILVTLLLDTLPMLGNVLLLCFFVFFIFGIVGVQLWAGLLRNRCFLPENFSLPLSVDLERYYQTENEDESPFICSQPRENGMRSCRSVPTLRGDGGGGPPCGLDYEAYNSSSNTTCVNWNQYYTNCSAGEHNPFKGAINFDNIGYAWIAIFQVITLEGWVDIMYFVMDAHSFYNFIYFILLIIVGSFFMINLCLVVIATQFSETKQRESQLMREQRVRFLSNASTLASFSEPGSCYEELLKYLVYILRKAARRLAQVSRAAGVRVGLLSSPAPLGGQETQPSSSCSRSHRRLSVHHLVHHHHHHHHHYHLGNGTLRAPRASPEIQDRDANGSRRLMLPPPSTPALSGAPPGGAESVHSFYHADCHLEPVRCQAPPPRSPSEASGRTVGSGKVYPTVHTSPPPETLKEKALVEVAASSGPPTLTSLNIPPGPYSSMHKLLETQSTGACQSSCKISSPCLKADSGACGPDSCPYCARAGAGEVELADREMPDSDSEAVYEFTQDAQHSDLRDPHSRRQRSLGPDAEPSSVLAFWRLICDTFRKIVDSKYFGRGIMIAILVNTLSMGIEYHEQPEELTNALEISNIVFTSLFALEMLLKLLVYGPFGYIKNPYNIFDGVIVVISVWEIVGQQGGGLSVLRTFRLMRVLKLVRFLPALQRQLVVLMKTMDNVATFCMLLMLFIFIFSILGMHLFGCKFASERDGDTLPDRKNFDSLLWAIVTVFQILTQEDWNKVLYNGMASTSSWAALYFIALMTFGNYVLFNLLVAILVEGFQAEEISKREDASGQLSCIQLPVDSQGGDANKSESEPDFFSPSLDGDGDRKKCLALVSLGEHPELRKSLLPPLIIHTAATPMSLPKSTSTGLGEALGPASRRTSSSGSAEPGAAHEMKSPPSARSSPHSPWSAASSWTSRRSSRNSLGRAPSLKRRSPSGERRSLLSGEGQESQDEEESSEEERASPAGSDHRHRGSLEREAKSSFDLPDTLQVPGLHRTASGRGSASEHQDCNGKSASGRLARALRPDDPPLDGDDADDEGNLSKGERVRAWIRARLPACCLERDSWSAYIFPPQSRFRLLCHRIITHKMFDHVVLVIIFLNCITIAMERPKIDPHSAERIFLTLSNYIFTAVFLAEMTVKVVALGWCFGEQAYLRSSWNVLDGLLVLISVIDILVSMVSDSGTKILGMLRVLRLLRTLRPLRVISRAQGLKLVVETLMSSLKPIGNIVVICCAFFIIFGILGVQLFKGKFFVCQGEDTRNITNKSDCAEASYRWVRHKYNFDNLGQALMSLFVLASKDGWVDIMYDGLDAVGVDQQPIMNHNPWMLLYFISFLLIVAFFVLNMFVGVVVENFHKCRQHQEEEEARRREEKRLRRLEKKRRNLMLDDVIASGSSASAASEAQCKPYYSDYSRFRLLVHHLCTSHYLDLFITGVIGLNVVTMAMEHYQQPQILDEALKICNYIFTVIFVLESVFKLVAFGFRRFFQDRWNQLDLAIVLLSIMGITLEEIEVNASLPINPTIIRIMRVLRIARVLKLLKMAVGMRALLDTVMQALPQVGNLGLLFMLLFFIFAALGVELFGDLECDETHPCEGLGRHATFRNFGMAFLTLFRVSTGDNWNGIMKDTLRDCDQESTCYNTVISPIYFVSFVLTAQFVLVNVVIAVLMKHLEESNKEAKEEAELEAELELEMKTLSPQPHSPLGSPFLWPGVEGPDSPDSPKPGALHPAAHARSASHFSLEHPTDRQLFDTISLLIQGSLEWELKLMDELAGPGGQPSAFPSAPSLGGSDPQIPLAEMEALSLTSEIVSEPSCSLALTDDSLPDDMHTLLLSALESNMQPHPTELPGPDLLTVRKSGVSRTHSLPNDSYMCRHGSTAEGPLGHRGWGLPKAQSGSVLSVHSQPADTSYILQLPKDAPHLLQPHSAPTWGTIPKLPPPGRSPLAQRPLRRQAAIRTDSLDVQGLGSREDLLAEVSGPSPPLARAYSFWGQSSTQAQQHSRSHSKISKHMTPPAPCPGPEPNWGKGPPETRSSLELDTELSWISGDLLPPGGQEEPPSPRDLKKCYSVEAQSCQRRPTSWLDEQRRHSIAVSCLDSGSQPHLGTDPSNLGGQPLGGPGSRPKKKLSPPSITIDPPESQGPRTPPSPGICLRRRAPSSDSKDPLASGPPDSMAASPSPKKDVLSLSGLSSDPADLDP

Compound | IC50 [1] | IC50 [2]
CN1CCCCC1C(=O)N1CC(CC(=O)Nc2cc(C(F)(F)F)cc(C(F)(F)F)c2)C1 (stereo not drawn) [Compound 37, N-(3,5-bis(trifluoromethyl)phenyl)-2-(1-(1-methylpiperidine-2-carbonyl)azetidin-3-yl)acetamide] | > 10 µM | 4.39 µM
N[C@@H]1CCCC[C@H]1C(=O)N1CCC(CC(=O)Nc2cc(C(F)(F)F)cc(C(F)(F)F)c2)CC1 [Compound 6, 2-(1-((1R,2R)-2-aminocyclohexanecarbonyl)piperidin-4-yl)-N-(3,5-bis(trifluoromethyl)phenyl)acetamide] | > 10 µM | 0.25 µM
N[C@H]1CCCC[C@H]1C(=O)N1CCC(CC(=O)Nc2cc(C(F)(F)F)cc(C(F)(F)F)c2)CC1 (racemic) [Compound 5, cis-2-(1-(2-aminocyclohexanecarbonyl)piperidin-4-yl)-N-(3,5-bis(trifluoromethyl)phenyl)acetamide] | > 10 µM | 0.1 µM
N[C@H]1CCCC[C@H]1C(=O)N1CC(CC(=O)Nc2cc(C(F)(F)F)cc(C(F)(F)F)c2)C1 (racemic) [Compound 41, cis-2-(1-(2-aminocyclohexanecarbonyl)azetidin-3-yl)-N-(3,5-bis(trifluoromethyl)phenyl)acetamide] | > 10 µM | 0.85 µM
CC(C)(N)CC(=O)N1CCC(CC(=O)Nc2cc(C(F)(F)F)cc(C(F)(F)F)c2)C1 (stereo not drawn) [Compound 44, 2-(1-(3-amino-3-methylbutanoyl)pyrrolidin-3-yl)-N-(3,5-bis(trifluoromethyl)phenyl)acetamide] | > 10 µM | 2.1 µM
CC(C)(CN)C(=O)N1CC(CC(=O)Nc2cc(C(F)(F)F)cc(C(F)(F)F)c2)C1 [Compound 46, 2-(1-(3-amino-2,2-dimethylpropanoyl)azetidin-3-yl)-N-(3,5-bis(trifluoromethyl)phenyl)acetamide] | > 10 µM | > 10 µM
N[C@H]1CCCC[C@@H]1C(=O)N1CCC(CC(=O)Nc2cc(Cl)cc(Cl)c2)CC1 (racemic) [Compound 17, trans-2-(1-(2-aminocyclohexanecarbonyl)piperidin-4-yl)-N-(3,5-dichlorophenyl)acetamide] | > 10 µM | 0.69 µM
CN1CCCC(C(=O)N2CC(CC(=O)Nc3cc(C(F)(F)F)cc(C(F)(F)F)c3)C2)C1 (stereo not drawn) [Compound 38, N-(3,5-bis(trifluoromethyl)phenyl)-2-(1-(1-methylpiperidine-3-carbonyl)azetidin-3-yl)acetamide] | > 10 µM | 8.04 µM
O=C(CC1CN(C(=O)C2CCCCN2)C1)Nc1cc(C(F)(F)F)cc(C(F)(F)F)c1 (stereo not drawn) [Compound 39, N-(3,5-bis(trifluoromethyl)phenyl)-2-(1-(piperidine-2-carbonyl)azetidin-3-yl)acetamide] | > 10 µM | 1.21 µM
CC(C)(CN)C(=O)N1CCC(CC(=O)Nc2cc(C(F)(F)F)cc(C(F)(F)F)c2)C1 (stereo not drawn) [Compound 47, 2-(1-(3-amino-2,2-dimethylpropanoyl)pyrrolidin-3-yl)-N-(3,5-bis(trifluoromethyl)phenyl)acetamide] | > 10 µM | 3.37 µM
CC(C)(N)CC(=O)N1CCC(CC(=O)Nc2cc(C(F)(F)F)cc(C(F)(F)F)c2)CC1 [Compound 42, 2-(1-(3-amino-3-methylbutanoyl)piperidin-4-yl)-N-(3,5-bis(trifluoromethyl)phenyl)acetamide] | > 10 µM | 0.57 µM
N[C@H]1CCCC[C@@H]1C(=O)N1CCC(CC(=O)Nc2ccc(Br)c(C(F)(F)F)c2)CC1 (racemic) [Compound 20, trans-2-(1-(2-aminocyclohexanecarbonyl)piperidin-4-yl)-N-(4-bromo-3-(trifluoromethyl)phenyl)acetamide] | > 10 µM | 0.92 µM

Next, values leading:

IC50 [1] | IC50 [2] | Compound
> 10 µM | 0.83 µM | N[C@@H]1CCCC[C@H]1C(=O)N1CC(CC(=O)Nc2cc(C(F)(F)F)cc(C(F)(F)F)c2)C1 (racemic) [Compound 40, trans-2-(1-(2-aminocyclohexanecarbonyl)azetidin-3-yl)-N-(3,5-bis(trifluoromethyl)phenyl)acetamide]
> 10 µM | 1.85 µM | N[C@@H]1CCCC[C@H]1C(=O)N1CCC(CNC(=O)c2cc(C(F)(F)F)cc(C(F)(F)F)c2)CC1 (racemic) [Compound 48]
> 10 µM | > 10 µM | CC(C)(N)CC(=O)N1CC(CC(=O)Nc2cc(C(F)(F)F)cc(C(F)(F)F)c2)C1 [Compound 43, 2-(1-(3-amino-3-methylbutanoyl)azetidin-3-yl)-N-(3,5-bis(trifluoromethyl)phenyl)acetamide]
4.68 µM | 0.99 µM | NC1(C(=O)N2CCC(CC(=O)Nc3cc(C(F)(F)F)cc(C(F)(F)F)c3)CC2)CCCCC1 [Compound 9, 2-(1-(1-aminocyclohexanecarbonyl)piperidin-4-yl)-N-(3,5-bis(trifluoromethyl)phenyl)acetamide]
> 10 µM | 0.14 µM | N[C@H]1CCCC[C@@H]1C(=O)N1CCC(CC(=O)Nc2cc(C(F)(F)F)cc(C(F)(F)F)c2)CC1 [Compound 7, 2-(1-((1S,2S)-2-aminocyclohexanecarbonyl)piperidin-4-yl)-N-(3,5-bis(trifluoromethyl)phenyl)acetamide]
6.19 µM | 0.46 µM | N[C@@H]1CCCC[C@@H]1C(=O)N1CCC(CC(=O)Nc2cc(C(F)(F)F)cc(C(F)(F)F)c2)C1 (stereo partly drawn) [Compound 31, 2-(1-((1S,2R)-2-aminocyclohexanecarbonyl)pyrrolidin-3-yl)-N-(3,5-bis(trifluoromethyl)phenyl)acetamide]
6.02 µM | 1.95 µM | CN1CCCCC1C(=O)N1CCC(CC(=O)Nc2cc(C(F)(F)F)cc(C(F)(F)F)c2)C1 (stereo not drawn) [Compound 35, N-(3,5-bis(trifluoromethyl)phenyl)-2-(1-(1-methylpiperidine-2-carbonyl)pyrrolidin-3-yl)acetamide]
5.66 µM | 0.63 µM | N[C@@H]1CCCC[C@H]1C(=O)N1CCC(CC(=O)Nc2cc(C(F)(F)F)cc(C(F)(F)F)c2)C1 (stereo partly drawn) [Compound 32, 2-(1-((1R,2R)-2-aminocyclohexanecarbonyl)pyrrolidin-3-yl)-N-(3,5-bis(trifluoromethyl)phenyl)acetamide]
7.02 µM | 0.57 µM | O=C(CC1CCN(C(=O)C2CCCCN2)C1)Nc1cc(C(F)(F)F)cc(C(F)(F)F)c1 (stereo not drawn) [Compound 29, N-(3,5-bis(trifluoromethyl)phenyl)-2-(1-(piperidine-2-carbonyl)pyrrolidin-3-yl)acetamide]
8.1 µM | 2.44 µM | CN1CCCC(C(=O)N2CCC(CC(=O)Nc3cc(C(F)(F)F)cc(C(F)(F)F)c3)C2)C1 (stereo not drawn) [Compound 36, N-(3,5-bis(trifluoromethyl)phenyl)-2-(1-(1-methylpiperidine-3-carbonyl)pyrrolidin-3-yl)acetamide]
4.4 µM | 1.94 µM | CC1(C(=O)N2CCC(CC(=O)Nc3cc(C(F)(F)F)cc(C(F)(F)F)c3)C2)CCCCN1 (stereo not drawn) [Compound 34, N-(3,5-bis(trifluoromethyl)phenyl)-2-(1-(2-methylpiperidine-2-carbonyl)pyrrolidin-3-yl)acetamide]
8.95 µM | 0.71 µM | N[C@H]1CCCC[C@H]1C(=O)N1CCC(CC(=O)Nc2cc(C(F)(F)F)cc(C(F)(F)F)c2)C1 (stereo partly drawn) [Compound 30, 2-(1-((1R,2S)-2-aminocyclohexanecarbonyl)pyrrolidin-3-yl)-N-(3,5-bis(trifluoromethyl)phenyl)acetamide]
